Experimental data published in patent US20140039044A1, “Hydroxylated Polymethoxyflavone Compositions” (WLLGEN, INC., priority 2006, published 2014).
Where two headings read alike, the source gives them in different places.

Assays:
Type in all cases: cell-based, human
[1] = system: HL-60 cells; assay: Cell survival assay (antiproliferative IC50); conditions: HL-60 cells, read-out: Antiproliferative IC50
Experimental: (§1) Human colon carcinoma COLO205 and HT-29 cell lines (American Type Culture Collection (ATTC), Manassas, Va.) and the leukemia cell line HL-60 were maintained at 37° C. in 5% CO2 air in RPMI 1640 medium supplemented with 10% heat-inactivated fetal bovine serum (Gibco BRL, Grand Island, N.Y.), 100 units/mL penicillin, 100 μg/mL streptomycin and 2 mM 1-glutamine. The human gastric carcinoma AGS cell line (CCRC 60102), obtained from the Food Industry Research and Development Institute (Hsinchu, Taiwan), was maintained as described above, except that DMEM/F 12 was used as the medium rather than the RPMI 1640 medium. The human breast carcinoma MCF-7 cell line MCF-7 (ATTC) was cultured in RPMI 1640 medium supplemented with 5% fetal calf serum at 37° C. in a humidified atmosphere of 5% CO2 in air. The mouse macrophage cell line RAW 264.7 was maintained in RPMI 1640 supplemented with 100 U/ml penicillin, 100 μg/ml streptomycin, and 10% heat-inactivated fetal calf serum.
(§2) Cancer cells (2×10^5) were plated in 12-well Petri dishes. The next day, the medium was changed and treated with different concentration of the test compounds or compositions for 24 h. Where individual compounds were to be tested, stock solutions of the compound was prepared to contain 200 μM of the individual hydroxylated or non-hydroxylated PMF in dimethylsulfoxide (DMSO). Control cells were treated with DMSO to a final concentration of 0.05% (v/v). Depending on the objective of the particular experiment, cells were treating with test compound or composition for 1, 3 or 6 days. At the end of incubation, cells were harvested for cell count using a hemocytometer and measuring the cellular total nucleic acid content with the CyQUANT Cell Proliferation Assay Kit (Molecular Probes).
(§3) 1 N PMF and 6 N PMF compositions containing hydroxylated PMFs, prepared as described in Section 8.3 above, 70% PMF OPE and 5,6,7,8,3′,4′-hexamethoxyflavone (nobiletin) were tested for antiproliferative activity and apoptosis-inducing activity in HL-60, AGS and COLO205 cells as described in Section 8.4 above. Antiproliferative and apoptosis-inducing activities were derived as IC50 values and AC50, values, respectively, where AC50 is the concentration required for 50% apoptosis.
(§4) The PMF compounds were assayed in vitro for cell growth inhibition and for their ability to induce apoptosis in various human cancer cells, including HL-60, AGS, COLO 205, and HT-29 cells, using methods described in Section 8.4 above. Antiproliferative (IC50) and apoptosis-inducing activity (AC50) of PMFs in the HL-60, AGS, COLO 205, and HT-29 cells are reported in Table 9, where *P<0.05, **P<0.01 and ***P<0.001 indicate statistically significant differences from the control group.

[2] = system: COLO205 cells; assay: Cell survival assay (antiproliferative IC50); conditions: COLO205 cells, read-out: Antiproliferative IC50
Experimental: as §1, §2, §3, §4

[3] = system: AGS cells; assay: Cell survival assay (antiproliferative IC50); conditions: AGS cells, read-out: Antiproliferative IC50
Experimental: as §1, §2, §3, §4

[4] = system: HT-29 cells; assay: Cell survival assay (antiproliferative IC50)
Experimental: as §1, §2, §4

[5] = system: COLO205 cells; assay: Cell cycle distribution by flow cytometry; conditions: COLO205 cells, 24 h, Table 12
Experimental: (§5) The human cancer cells (2×10^5) were cultured in 60-mm Petri dishes and incubated for 24 h. After treated with test compounds for 24 h, the cells were then harvested, washed with PBS resuspended in 200 μL of PBS, and fixed in 800 μL of iced 100% ethanol at −20° C. After being left to stand overnight, the cell pellets were collected by centrifugation, resuspended in 1 mL of hypotonic buffer (0.5% Triton X-100 in PBS and 0.5 μg/mL RNase) and incubated at 37° C. for 30 min. Next, 1 mL of propidium iodide solution (50 μg/mL) was added, and the mixture was allowed to stand on ice for 30 min. Fluorescence emitted from the propidium iodide-DNA complex was quantitated after excitation of the fluorescent dye by FACScan cytometry (Becton Dickinson, San Jose, Calif.).
(§6) The effects of the hydrolyzed PMF-enriched compositions, nobiletin and 70% PMF OPE on cell cycle distribution were studied, following the procedures described in Section 8.4. Results for cell cycle distribution in HL-60 cells, COLO205 cells and AGS cells are provided in Table 5, Table 6 and Table 7, respectively. […] In HL-60 cells, G2/M arrest predominated in cells treated with 6N PMF concentrations ≧5 μM and with 1N PMF concentrations ≧25 μM.
(§7) Compounds A-K were evaluated in terms of their effects in arresting cell cycle progression by observing cell cycle phase distribution in cells treated with the compounds. Cells were treated with 5, 10, 25, 50, and 100 μM of one of compound A-K or DMSO (control) for 24 h and subjected to flow cytometric analysis after staining their DNA, as described above.
(§8) Similar cell cycle phase distribution studies were performed in AGS, COLO205, and HT-29 cells in response to individual PMFs, with results reported in Tables 11, 12 and 13, respectively.

[6] = system: AGS cells; assay: Cell cycle distribution by flow cytometry; conditions: 24 h, Table 11
Experimental: as §5, §6, §7, §8

Structure (SMILES): COc1ccc(-c2oc3c(OC)c(OC)c(OC)c(OC)c3c(=O)c2OC)cc1OC [D, 3,5,6,7,8,3,4-heptamethoxyflavone, reference compound]
- IC50 [1]: 54.4 ± 0.9 µM
- IC50 [2]: 62.5 ± 1.81 µM
- IC50 [3]: > 100 µM
- IC50 [4]: > 100 µM
- Cell Cycle Distribution G0/G1 ([5]; 5 μM): 60.81 ± 0.62
- Cell Cycle Distribution G2/M ([5]; 5 μM): 0.04 ± 0.05
- Cell Cycle Distribution S ([5]; 5 μM): 39.16 ± 0.67
- Cell Cycle Distribution G0/G1 ([5]; 10 μM): 60.58 ± 0.57
- Cell Cycle Distribution G2/M ([5]; 10 μM): 0.40 ± 0.04
- Cell Cycle Distribution S ([5]; 10 μM): 39.02 ± 0.61
- Cell Cycle Distribution G0/G1 ([5]; 25 μM): 61.91 ± 0.35
- Cell Cycle Distribution G2/M ([5]; 25 μM): 9.28 ± 0.59
- Cell Cycle Distribution S ([5]; 25 μM): 28.82 ± 0.23
- Cell Cycle Distribution G0/G1 ([5]; 50 μM): 68.87 ± 1.53
- Cell Cycle Distribution G2/M ([5]; 50 μM): 6.10 ± 2.64
- Cell Cycle Distribution S ([5]; 50 μM): 25.03 ± 1.12
- Cell Cycle Distribution G0/G1 ([5]; 100 μM): 75.17 ± 0.05
- Cell Cycle Distribution G2/M ([5]; 100 μM): 5.72 ± 0.64
- Cell Cycle Distribution S ([5]; 100 μM): 19.12 ± 0.69
- Cell Cycle Distribution G0/G1 ([6]; 5 μM): 37.6 ± 0.92
- Cell Cycle Distribution G2/M ([6]; 5 μM): 0.4 ± 0.57
- Cell Cycle Distribution S ([6]; 5 μM): 62.4 ± 0.85
- Cell Cycle Distribution G0/G1 ([6]; 10 μM): 44.2 ± 0.14
- Cell Cycle Distribution G2/M ([6]; 10 μM): 1.3 ± 0.42
- Cell Cycle Distribution S ([6]; 10 μM): 55.2 ± 0.42
- Cell Cycle Distribution G0/G1 ([6]; 25 μM): 46.6 ± 0.35
- Cell Cycle Distribution G2/M ([6]; 25 μM): 4.7 ± 0.14
- Cell Cycle Distribution S ([6]; 25 μM): 48.8 ± 0.42
- Cell Cycle Distribution G0/G1 ([6]; 50 μM): 48.0 ± 0.14
- Cell Cycle Distribution G2/M ([6]; 50 μM): 6.9 ± 0.42
- Cell Cycle Distribution S ([6]; 50 μM): 45.7 ± 0.35
- Cell Cycle Distribution G0/G1 ([6]; 100 μM): 63.2 ± 0.78
- Cell Cycle Distribution G2/M ([6]; 100 μM): 4.0 ± 0.14
- Cell Cycle Distribution S ([6]; 100 μM): 33.0 ± 0.49

Structure (SMILES): COc1ccc(-c2cc(=O)c3c(O)c(OC)c(OC)c(OC)c3o2)cc1OC [J, 5-hydroxy-6,7,8,3′,4′-pentamethoxyflavone]
- IC50 ([1]; Homo sapiens): > 100 µM
- IC50 ([2]; Homo sapiens, COLO 205): > 100 µM
- IC50 ([3]; Homo sapiens): > 100 µM
- IC50 ([4]; Homo sapiens): > 100 µM
- Cell Cycle Distribution G0/G1 ([5]; 5 μM): 56.75 ± 1.52
- Cell Cycle Distribution G2/M ([5]; 5 μM): 7.41 ± 0.30
- Cell Cycle Distribution S ([5]; 5 μM): 35.85 ± 1.22
- Cell Cycle Distribution G0/G1 ([5]; 10 μM): 59.63 ± 0.88
- Cell Cycle Distribution G2/M ([5]; 10 μM): 7.07 ± 0.86
- Cell Cycle Distribution S ([5]; 10 μM): 31.99 ± 1.85
- Cell Cycle Distribution G0/G1 ([5]; 25 μM): 63.97 ± 0.56
- Cell Cycle Distribution G2/M ([5]; 25 μM): 6.38 ± 1.05
- Cell Cycle Distribution S ([5]; 25 μM): 29.65 ± 1.61
- Cell Cycle Distribution G0/G1 ([5]; 50 μM): 64.90 ± 1.44
- Cell Cycle Distribution G2/M ([5]; 50 μM): 6.41 ± 0.13
- Cell Cycle Distribution S ([5]; 50 μM): 28.69 ± 1.57
- Cell Cycle Distribution G0/G1 ([5]; 100 μM): 62.39 ± 2.98
- Cell Cycle Distribution G2/M ([5]; 100 μM): 7.05 ± 0.13
- Cell Cycle Distribution S ([5]; 100 μM): 30.57 ± 2.84
- Cell Cycle Distribution G0/G1 ([6]; 5 μM): 58.65 ± 1.77
- Cell Cycle Distribution G2/M ([6]; 5 μM): 13.51 ± 1.20
- Cell Cycle Distribution S ([6]; 5 μM): 27.84 ± 0.56
- Cell Cycle Distribution G0/G1 ([6]; 10 μM): 57.07 ± 1.02
- Cell Cycle Distribution G2/M ([6]; 10 μM): 13.84 ± 0.52
- Cell Cycle Distribution S ([6]; 10 μM): 29.09 ± 1.54
- Cell Cycle Distribution G0/G1 ([6]; 25 μM): 58.84 ± 4.84
- Cell Cycle Distribution G2/M ([6]; 25 μM): 14.00 ± 4.20
- Cell Cycle Distribution S ([6]; 25 μM): 27.17 ± 0.64
- Cell Cycle Distribution G0/G1 ([6]; 50 μM): 52.82 ± 3.22
- Cell Cycle Distribution G2/M ([6]; 50 μM): 15.74 ± 0.11
- Cell Cycle Distribution S ([6]; 50 μM): 31.45 ± 3.31
- Cell Cycle Distribution G0/G1 ([6]; 100 μM): 58.11 ± 1.11
- Cell Cycle Distribution G2/M ([6]; 100 μM): 12.71 ± 0.25
- Cell Cycle Distribution S ([6]; 100 μM): 29.24 ± 1.28
